Experimental findings from paper PMC4186417 (Pharmacology Research & Perspectives, 2014) are described below.

The assay addresses T1, EP1 receptor (Mus musculus, UniProt P35375).
T1 sequence (P35375 1-405): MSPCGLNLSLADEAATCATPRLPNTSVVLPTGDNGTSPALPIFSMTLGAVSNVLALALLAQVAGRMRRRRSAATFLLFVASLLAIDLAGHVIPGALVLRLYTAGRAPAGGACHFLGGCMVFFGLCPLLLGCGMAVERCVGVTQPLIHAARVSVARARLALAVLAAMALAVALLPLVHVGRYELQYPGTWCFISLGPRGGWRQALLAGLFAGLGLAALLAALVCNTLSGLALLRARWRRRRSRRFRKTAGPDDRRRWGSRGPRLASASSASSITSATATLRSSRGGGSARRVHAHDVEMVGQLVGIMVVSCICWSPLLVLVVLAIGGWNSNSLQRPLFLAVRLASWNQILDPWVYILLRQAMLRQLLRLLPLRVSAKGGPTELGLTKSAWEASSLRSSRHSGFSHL
Nature of the assay: Fura-2 intracellular Ca2+ dose-response in EP1-HEK cells. The class given is cell-based.

One may read the EC50 as the concentration giving half of the maximal effect.

For the compound `CCCCC[C@H](O)/C=C/[C@H]1[C@H](O)CC(=O)[C@@H]1C/C=C\CCCC(=O)O` [PGE2], the EC50 turned out to be 12.8 nM.
